# From patent US20040033483A1, “Cell diagnosing method, and device and apparatus use for it” (priority 2001, published 2004)
# Key:
# [1] = test system: normal cells prepared from the fundus of rat stomach; test: Electrical signal of cells on the cell diagnosis device on applying Carbachol, normal cells; format: cell-based
# Description: (§1) A cell diagnosis apparatus comprising the device shown in FIG. 3 as a measuring section (signal source) 101, which has a configuration shown in FIG. 4, was used. Normal cells and cancer cells were prepared as samples from the fundus of rat stomach. The apparatus was used to measure the action of a chemical substance, Carbachol, on these samples.
# Carbachol is a chemical substance known as an analog of the neurotransmitter Acetylcholine. Carbachol (manufactured by Sigma) was dissolved in Krebs Ringer solution to concentrations of 0, 0.1, 0.3, 1, 3 10, 30 and 100 μM. The solutions having these concentrations were used to measure an electrical signal when each solution was applied to the normal cells and the cancer cells derived from the fundus of stomach. For each Carbachol concentration, time-series signal values for 10 seconds were obtained from the measuring section (signal source) 101 comprising the cell diagnosis device shown in FIG. 3, and was sampled at intervals of 100 msec to obtain time-series data, and the standard deviation of the sampling data was calculated. […]
# (§2) Before and after 50 μM-concentration Carbachol was applied to the normal cells and the cancer cells prepared from the fundus of rat stomach, signals were obtained from the measuring section (signal source) 101, and the standard deviation of the signals was calculated in a manner similar to that of Example 1.
# [2] = test system: cancer cells prepared from the fundus of rat stomach; test: Electrical signal of cells on the cell diagnosis device on applying Carbachol, cancer cells; format: cell-based
# Description: as §1
# Carbachol is a chemical substance known as an analog of the neurotransmitter Acetylcholine. Carbachol (manufactured by Sigma) was dissolved in Krebs Ringer solution to concentrations of 0, 0.1, 0.3, 1, 3 10, 30 and 100 μM. The solutions having these concentrations were used to measure an electrical signal when each solution was applied to the normal cells and the cancer cells derived from the fundus of stomach. For each Carbachol concentration, time-series signal values for 10 seconds were obtained from the measuring section (signal source) 101 comprising the cell diagnosis device shown in FIG. 3, and was sampled at intervals of 100 msec to obtain time-series data, and the standard deviation of the sampling data was calculated. The average of the standard deviation was plotted in FIG. 8. In FIG. 8, black circles indicate results obtained from cells including cancer cells and white circles indicate results obtain from normal cells.
# The apparatus having the configuration shown in FIG. 5, which comprises the device shown in FIG. 3 as a measuring section (signal source), was used to measure the action of Carbachol on samples, where the samples were normal cells and cells including cancer cells prepared from the fundus of rat stomach, as in Example 1.
# as §2
# [3] = 50 μM Carbachol, before versus after application, 10 seconds, FIG. 9
# [4] = Carbachol 0, 0.1, 0.3, 1, 3, 10, 30 and 100 μM in Krebs Ringer solution, 10 seconds signal, FIG. 8
smiles,measurement,setting,value
C[N+](C)(C)CCOC(N)=O [Carbachol],average of the standard deviation every 5 msec after applying Carbachol,[1]; [3],increased
same,average of the standard deviation of the electrical signal at 100 msec intervals,[1]; [4],"the higher the Carbachol concentration, the higher the average of the standard deviation"
same,average and half-width of the normal distribution of standard deviations compared with the normal cell,"[2]; 50 μM Carbachol, FIG. 9",larger average and half-width values than those of the normal cell
same,average of the standard deviation every 5 msec after applying Carbachol,[2]; [3],increased
same,average of the standard deviation of the electrical signal at 100 msec intervals,[2]; [4],"the higher the Carbachol concentration, the higher the average of the standard deviation"
